Consider 16 molecules from PubChem BioAssay (NCI).

“And” between values parts separate entries of the source, which are not always exact repeats. Equal values may be shown once.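 48-hour exposure; five concentrations; linearly interpolated endpoints. Definition used: TGI = concentration required for complete inhibition of growth.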

Common to all, as to experiment: inhibition of tumour cell growth, NCI panel, 48 h
Experiment [1] deals with NCI/ADR-RES ovarian.
Experiment [2] has as its system MOLT-4 leukemia.
The test system of experiment [3] is SR leukemia.
Experiment [4] deals with 786-0 renal.
The subject of experiment [5] is UACC-62 melanoma.
Experiment [6] has as its system OVCAR-5 ovarian.
The test system of experiment [7] is IGROV1 ovarian.
The test system of experiment [8] is SK-OV-3 ovarian.
For experiment [9], the system named is HCT-15 colon.
Experiment [10] has as its system RXF 393 renal.
The subject of experiment [11] is PC-3 prostate.

As for `CN1COCc2c1ccc1cc3ccc4c(c3nc21)COCN4S(C)(=O)=O`, the TGI in [1], in [2], in [3], in experiment [4], in experiment [5] and in experiment [6] was above 100 µM in each case. Besides, the TGI in experiment [7], in experiment [8], in experiment [9], in experiment [10] and in [11] was above 100 µM throughout.
As for `CC12CCC(O)CC1CCC1C2CCC2(C)C(C(=O)CC(O)C(F)(F)F)CCC12` (stereo unspecified), the TGI is above 100 µM in experiment [1]; 43.6 µM in experiment [2]; 11.2 µM in [3]; 21.6 µM in experiment [4]; above 100 µM in experiment [5]; above 76.5 µM in experiment [6]. Also, the TGI is above 100 µM in experiment [7]; 79.5 µM in [8]; above 100 µM in experiment [9]; 29.3 µM in [10]; above 100 µM in [11].
For `Nc1ccc(S2(c3ccc(N)cc3)C=C(c3ccccc3)C(c3ccccc3)=C2)cc1`, the TGI in experiment [1] was above 100 µM; in experiment [2], above 100 µM; in experiment [3] it was above 100 µM; in [4], above 72.1 µM; in [5], above 100 µM; in [6], above 100 µM. Moreover, the TGI in [7] is above 100 µM; in experiment [8], above 59.7 µM; in [9], above 100 µM; in [10], above 100 µM; in [11], above 100 µM.
On to `CN(C)CCOC1(Cc2ccc(F)cc2)CCC(C(C)(C)C)CC1` (stereo unspecified), for which the TGI is 24.2 µM and 27.7 µM in experiment [1]; 8.88 µM and 12.3 µM in [2]; 8.37 µM and 6.34 µM in experiment [3]; 15.9 µM and 11.7 µM in [4]; 15.8 µM and 17 µM in experiment [5]; 21 µM and 20.5 µM in [6]. Moreover, the TGI in experiment [7] was 23.8 µM and 24.3 µM; in experiment [8], 27.7 µM and 28.7 µM; in [9], 21.9 µM and 19.7 µM; in experiment [10], 8.04 µM; in [11] it was 17.4 µM and 19 µM.
For the molecule `COc1ccc2cc(C(C)C(=O)N3CCOC3=O)ccc2c1` (stereo unspecified), the TGI in experiment [1], in [2], in experiment [3], in [4], in experiment [5] and in experiment [6] was above 100 µM throughout. In addition, the TGI in [7], in experiment [8], in experiment [9], in experiment [10] and in [11] was above 100 µM in each case.
Turning to `CN1[C@@H]2C[C@@H](OC(=O)[C@H](CO)c3ccccc3)C[C@H]1[C@@H]1O[C@@H]12`, the TGI in experiment [1], in experiment [2], in experiment [3], in experiment [4], in [5] and in experiment [6] was above 100 µM in each case. Also, the TGI in experiment [7], in [8], in experiment [9], in [10] and in experiment [11] was above 100 µM throughout.
Consider `Nc1ccc(S(=O)(=O)Nc2nccs2)cc1`, for which the TGI in experiment [1], in [2], in [3], in experiment [4], in experiment [5] and in experiment [6] was above 100 µM in each case. Besides, the TGI in [7], in [8], in [9], in experiment [10] and in experiment [11] was above 100 µM throughout.
In the case of `O=C(O)/C=c1/c2ccccc2n2nc3ccccc3c12`, the TGI is 81 µM in experiment [1]; 69.6 µM in experiment [2]; 49.2 µM in [3]; above 100 µM in [4]; 43.5 µM in experiment [5]; above 100 µM in [6]. The TGI in experiment [7] is above 100 µM; in experiment [8] it was 65.7 µM; in experiment [9] it was above 100 µM; in experiment [10], above 100 µM; in experiment [11], above 100 µM.
`CC(C)(C)OC(=O)NCCCNC1(c2cc3ccccc3s2)CCCCC1`: the TGI in experiment [1] amounted to 30.2 µM; in experiment [2] it was 28.4 µM; in experiment [3], 28 µM; in [4] it was 28.8 µM; in [5], 31.4 µM; in experiment [6], 27.5 µM. Further, the TGI in experiment [7] came to 32.2 µM; in experiment [8] it was 26.2 µM; in [9], 29.5 µM; in experiment [10] it was 29.8 µM; in experiment [11], 47.6 µM.
On to `CC(=O)O[C@H]1CC[C@@]2(C)C(=CC[C@H]3[C@@H]4C[C@H](N5CCOCC5)[C@H](OC(C)=O)[C@@]4(C)CC[C@@H]32)C1`, for which the TGI in [1], in experiment [2], in [3], in [4], in [5] and in [6] was above 100 µM each time. Moreover, the TGI in experiment [7], in [8], in experiment [9], in experiment [10] and in [11] was above 100 µM in each case.
As to `Oc1cccc(-c2nc3cc(F)ccc3s2)c1`, the TGI stood at 54.3 µM in experiment [1]; 59 µM in [2]; 47.8 µM in experiment [3]; 39 µM in experiment [4]; 35.1 µM in experiment [5]; 52.9 µM in [6]. Moreover, the TGI in experiment [7] is 33.1 µM; in experiment [8], 70 µM; in experiment [9], 56.4 µM; in experiment [10], above 100 µM; in experiment [11], 65 µM.
Consider `CCOC(=O)NC(Nc1cccc(C(F)(F)F)c1)(C(F)(F)F)C(F)(F)F`, for which the TGI in experiment [1], in experiment [2], in experiment [3], in experiment [4], in experiment [5] and in [6] was above 100 µM each time. In addition, the TGI in experiment [7], in experiment [8], in experiment [9], in experiment [10] and in experiment [11] was above 100 µM each time.
As for `CC(=O)NC1c2ccccc2C(C)(C)C12CCC1(CC2)OCCO1` (stereo unspecified), the TGI in experiment [1], in experiment [2], in experiment [3], in [4], in experiment [5] and in [6] was above 100 µM throughout. In addition, the TGI in [7] is above 100 µM; in [8], above 10 µM; in experiment [9], above 100 µM; in experiment [10], above 100 µM; in [11] it was above 100 µM.
Turning to `O=[N+]([O-])/C(C(Cl)=C(Cl)Cl)=C(\N1CCCCC1)n1cncn1`, the TGI was 56 µM in experiment [1]; above 50.5 µM in experiment [2]; above 100 µM in experiment [3]; 52.4 µM in [4]; 33 µM in experiment [5]; 32.1 µM in experiment [6]. In addition, the TGI worked out at 24 µM in [7]; 37.3 µM in experiment [8]; 38.1 µM in experiment [9]; 24.2 µM in experiment [10]; 31.7 µM in experiment [11].
For `CC(C)=CCNc1ncnc2c1ncn2CCC#N`, the TGI in experiment [1], in experiment [2], in experiment [3], in [4], in [5] and in experiment [6] was above 100 µM throughout. For the same molecule, the TGI in [7], in experiment [8], in experiment [9], in [10] and in experiment [11] was above 100 µM throughout.
`Nc1[nH]nc2nc3ccc(C(F)(F)F)cc3nc12`: the TGI in experiment [1] was above 100 µM; in experiment [2] it was above 100 µM; in experiment [3], above 100 µM; in experiment [4], 60.7 µM; in [5] it was 69.1 µM; in experiment [6] it was 99.2 µM. In addition, the TGI in experiment [7] was 72.2 µM; in experiment [8] it was 52.7 µM; in experiment [9] it was above 100 µM; in [10] it was 57.1 µM; in experiment [11], above 100 µM.
